Test results taken from patent publication US8673922B2, “Azaindazole compounds” (Bristol-Myers Squibb Company, priority 2010, dated 2014).

Tests used:
[1] = target: T1, Human CYP17 (Homo sapiens, UniProt P05093); test: CYP17 Total SPA Assay; format: biochemical; conditions: microsomes from HEK2 cells stably transfected with CYP17; 3H-Pregnenolone 1 uM, NADPH 2 mM; 45 minutes at room temperature
T1 construct: expressed in transfected cells; host or cells: HEK2 (sic); microsomes prepared as a high-speed pellet
T1 sequence (P05093 1-508): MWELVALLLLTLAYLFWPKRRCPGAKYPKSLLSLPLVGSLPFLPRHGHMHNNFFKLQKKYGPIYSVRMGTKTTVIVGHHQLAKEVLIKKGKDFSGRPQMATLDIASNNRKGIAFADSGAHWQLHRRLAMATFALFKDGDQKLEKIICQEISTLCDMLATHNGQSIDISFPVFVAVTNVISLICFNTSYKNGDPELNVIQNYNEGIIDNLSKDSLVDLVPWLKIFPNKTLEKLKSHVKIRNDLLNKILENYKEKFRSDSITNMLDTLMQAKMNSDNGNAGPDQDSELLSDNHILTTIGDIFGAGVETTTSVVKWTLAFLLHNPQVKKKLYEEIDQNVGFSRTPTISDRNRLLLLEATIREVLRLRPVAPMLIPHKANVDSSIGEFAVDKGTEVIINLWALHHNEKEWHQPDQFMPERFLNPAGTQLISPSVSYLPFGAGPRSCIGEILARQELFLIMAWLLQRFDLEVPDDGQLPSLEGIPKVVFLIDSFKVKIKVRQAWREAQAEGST
Procedure: The assays were performed in U-bottom 384-well optiplates. The final assay volume was 15 μl prepared from 7.5 μl additions of microsomes (prepared as a high-speed pellet from homogenized HEK2 cells stably transfected with CYP17), substrates (3 H-Pregnenolone and NADPH) and test compounds in assay buffer (50 mM Potassium phosphate pH 7.2, 10% glycerol). The reaction was initiated by the combination of the microsomes and substrates in wells containing compound. The reaction was incubated at room temperature for 45 minutes and terminated by adding 7.5 μl of 0.2N HCl to each well. Following an incubation period of 10 minutes, anti-DHEA-coated SPA beads were added to the terminated reaction. The plate was sealed and incubated overnight with shaking at 4° C. The beads were allowed to settle in the plate for 1 hour and the plate read on a Topcount (Perkin-Elmer) plate reader.
Inhibition data were calculated by comparison to no enzyme control reactions for 100% inhibition and vehicle-only reactions for 0% inhibition. The final concentration of reagents in the assays are NADPH, 2 mM; 3H-Pregnenolone, 1 uM; microsomes, 1.25 ug/ml; Anti-DHEA-SPA beads (0.125 mg/well) in 0.5% Triton X-100 and DMSO, 0.05%. Dose response curves were generated to determine the concentration required inhibiting 50% of enzyme activity (IC50). Compounds were dissolved at 10 mM in dimethylsulfoxide (DMSO) and evaluated at eleven concentrations, each in duplicate. IC50 values were derived by non-linear regression analysis.
Table 5 below lists the IC50 values for the following examples of this invention measured in the Total CYP17 SPA Assay hereinabove.

[2] = test system: cynomolgus monkeys; test: 1-Day Cyno PK/PD Study; format: in vivo, cynomolgus monkey; conditions: plasma, single oral dose 1 mg/Kg in 80% PEG-400/water, monitored over 24 hours
Procedure: Example 67 was formulated in 80% PEG-400/water at a volume of 1 mL/kg of monkey at a dose of 1 mg/kg. The formulation was then dosed orally at time=0 hours and blood samples were taken over a 24 hour period to monitor for drug exposure and testosterone levels. (♦) Example 67 (nM); (▪) testosterone (ng/dL).
• Animals: All procedures involving animals and their care were conducted in conformity with the guidelines that are in compliance with the Bristol-Myers Squibb Institutional Animal Care and Use Committee. Fully mature male cynomolgus monkeys (>4 yrs of age; 5-6 kg) were from an in-house colony. All the monkeys used had chronically implanted femoral vein access ports. For oral studies, all animals were fasted overnight prior to dosing and were fed 4 hr after dosing. […] The plasma fraction was immediately separated by centrifugation (14,000 rpm, 10 min, 4° C.), frozen on dry ice, and stored at −20° C. until the samples were analyzed. • Analysis of Tested Compound: Plasma samples were thawed and treated with two volumes of acetonitrile containing internal standard. After centrifugation to remove precipitated proteins, an aliquot of supernatant was analyzed by LC/MS/MS. […]

IC50 [1] [nM] | SMILES | testosterone levels [2] [ng/dL]
186 | Cc1ncncc1-c1ccnc2c1cnn2-c1ccc(F)cc1 [Example 2, 1-(4-fluorophenyl)-4-(4-methylpyrimidin-5-yl)-1H-pyrazolo[3,4-b]pyridine] | 
23 | Nc1ncncc1-c1ccnc2c1cnn2-c1ccc(F)cc1 [Example 8, 5-(1-(4-fluorophenyl)-1H-pyrazolo[3,4-b]pyridin-4-yl)pyrimidin-4-amine] | 
5.9 | OC1(c2ccncc2-c2ccnc3c2cnn3-c2ccc(F)cc2)COC1 [Example 9, 3-(3-(1-(4-fluorophenyl)-1H-pyrazolo[3,4-b]pyridin-4-yl)pyridin-4-yl)oxetan-3-ol] | 
393 | Cc1ccncc1-c1ccnc2c1cnn2C1CCOCC1 [Example 33, 4-(4-methylpyridin-3-yl)-1-(tetrahydro-2H-pyran-4-yl)-1H-pyrazolo[3,4-b]pyridine] | 
100 | Cc1ccncc1-c1ccnc2c1cnn2-c1ccc(C(F)(F)F)cn1 [Example 39, 4-(4-methylpyridin-3-yl)-1-(5-(trifluoromethyl)pyridin-2-yl)-1H-pyrazolo[3,4-b]pyridine] | 
10 | Cc1ccncc1-c1ccnc2c1cnn2-c1ncccc1Br [Example 46, 1-(3-bromopyridin-2-yl)-4-(4-methylpyridin-3-yl)-1H-pyrazolo[3,4-b]pyridine] | 
807 | Cc1ccncc1-c1ccnc2c1cnn2Cc1c(F)cccc1Cl [Example 55, 1-(2-chloro-6-fluorobenzyl)-4-(4-methylpyridin-3-yl)-1H-pyrazolo[3,4-b]pyridine] | 
15 | Cc1ncncc1-c1ccnc2c1cnn2-c1ccc(F)cc1F [Example 64, 1-(2,4-difluorophenyl)-4-(4-methylpyrimidin-5-yl)-1H-pyrazolo[3,4-b]pyridine] | 
5.8 | Nc1ncncc1-c1ccnc2c1cnn2-c1ccc(F)cc1F [Example 67, 5-(1-(2,4-difluorophenyl)-1H-pyrazolo[3,4-b]pyridin-4-yl)pyrimidin-4-amine] | ~30
105 | Nc1ncncc1-c1ccnc2c1cnn2-c1ccc(F)c(F)c1F [Example 70, 5-(1-(2,3,4-trifluorophenyl)-1H-pyrazolo[3,4-b]pyridin-4-yl)pyrimidin-4-amine] | 
525 | Nc1ncncc1-c1ccnc2c1cnn2-c1ccccn1 [Example 72, 5-(1-(pyridin-2-yl)-1H-pyrazolo[3,4-b]pyridin-4-yl)pyrimidin-4-amine] | 
18 | Cc1ccncc1-c1ccnc2c1cnn2-c1cccc(S(N)(=O)=O)c1 [Example 80, 3-(4-(4-methylpyridin-3-yl)-1H-pyrazolo[3,4-b]pyridin-1-yl)benzenesulfonamide] | 
89 | Cc1ccncc1-c1ccnc2c1cnn2CC(F)(F)F [Example 84, 4-(4-methylpyridin-3-yl)-1-(2,2,2-trifluoroethyl)-1H-pyrazolo[3,4-b]pyridine] | 
622 | Cc1csc(-n2ncc3c(-c4cnccc4C)ccnc32)n1 [Example 88, 4-methyl-2-(4-(4-methylpyridin-3-yl)-1H-pyrazolo[3,4-b]pyridin-1-yl)thiazole] | 
159 | Fc1ccc(-n2ncc3c(-c4cncnc4C(F)(F)F)ccnc32)c(F)c1 [Example 93, 1-(2,4-difluorophenyl)-4-(4-(trifluoromethyl)pyrimidin-5-yl)-1H-pyrazolo[3,4-b]pyridine] | 
704 | Nc1ncncc1-c1ccnc2c1cnn2-c1ccc(F)c(Cl)c1 [Example 96, 5-(1-(3-chloro-4-fluorophenyl)-1H-pyrazolo[3,4-b]pyridin-4-yl)-4-pyrimidinamine] | 
320 | Fc1ccc(-n2ncc3c(-c4cncnc4C(F)(F)F)ccnc32)cc1F [Example 100, 1-(3,4-difluorophenyl)-4-(4-(trifluoromethyl)-5-pyrimidinyl)-1H-pyrazolo[3,4-b]pyridine] | 
123 | Fc1ccc(-n2ncc3c(-c4cncnc4OCC(F)(F)F)ccnc32)cc1 [Example 106, 1-(4-fluorophenyl)-4-(4-(2,2,2-trifluoroethoxy)pyrimidin-5-yl)-1H-pyrazolo[3,4-b]pyridine] | 
